Consider six compounds from patent US9918480B2, “Compositions and methods to selectively control invasive species” (STEPHEN F. AUSTIN STATE UNIVERSITY, priority 2013, dated 2018).

Read-outs that look alike come from different tables or passages of the source.

Series [1] relates to seedlings of rice cultivars. Particulars: vs four species of Brassicaceae, Asteraceae, Fabaceae and five weed grass species of Poaceae; cited from earlier work.
Series [2] has as its system red imported fire ant (Solenopsis invicta Buren) workers. Nature of the series: Contact toxicity assay, topical spray on fire ant workers, 7 h. Format: in vivo. Particulars: PROBIT. The procedure: (§1) Preparation of the fire ant extracts: (1) Acetone extract: 97 g (in fresh weight) of the red imported fire ant workers were extracted two times with acetone at RT (each 250 mL, 24 h). […] (2) Ethanol extract: 110 g (in fresh weight) of the whole worker bodies of the red imported fire ant (Solenopsis invicta Buren) (family Furmicidae) were extracted two times with 95% EtOH at RT (each 250 mL, 24 h). […] Both extracts were dissolved in water and then prepared as experimental solutions at the concentration of 0.1%, 1%, 5%, and 10%, respectively. […] The mixture was put under ultrasound for 30 min extraction. The fire ants were then removed and the extract was dried with anhydrous magnesium sulfate. 500 μL of the extract was transferred to NMR tube for detection. ^1H-NMR experiments were performed on a JEOL ECS 400 spectrometer, with spectroscopic data referenced to the solvent used. […] The ants in each beaker were topically sprayed with a total 1 mL of 0.1%, 1%, 5%, or 10% solutions of either acetone or ethanol extract, respectively. The control group was sprayed with 1 mL pure water. The beakers in all treatments were covered by cloth to prevent the escape of the fire ants. The surviving number of the fire ants in each treatment was counted by 1 h interval for 7 h. […] The ants in each beaker were topically sprayed with a total 1 mL of 0.1%, 1%, or 5% solutions of either formic or acetic acids, respectively. The control group was sprayed with 1 mL pure water. The beakers in all treatments were covered by cloth to prevent the escape of fire ants. The surviving number of the fire ants in each treatment was counted by 1 h interval for 7 h. […] The surviving number of the fire ants in each treatment was counted by 15 min interval for 90 min. […] The surviving number of the fire ants in each treatment was counted by 15 min interval for 90 min. […] The surviving number of the fire ants in each treatment was counted by 1 h interval for 7 h. […] The surviving number of the fire ants in each treatment was counted by 1 h interval for 2 h. […]

A further series deals with L. leucocephala. Particulars: 100 mg/L; cited from earlier work.
The test system of series [3] is giant salvinia (Salvinia molesta). The procedure: Plant growth and survival status were documented and photographed hourly for the first 5 h and then daily for seven days after the treatment.
Series [4] concerns subterranean termite (Reticulitermes flavipes (Kollar)). Particulars: for termite kill: during the first hour. As for the experimental part:
The mixture was put under ultrasound for 30 min extraction. The termites were then removed and the extract was dried with anhydrous magnesium sulfate. 500 μL of the extract was transferred to NMR tube for detection. ^1H-NMR experiments were performed on a JEOL ECS 400 spectrometer, with spectroscopic data referenced to the solvent used. […] The control group was sprayed with 1 mL pure water. The beakers in all treatments were covered by cloth to prevent the escape of termites. The surviving number of the termites in each treatment was counted by 1 h interval for 7 h.

The test system of series [5] is red imported fire ant (Solenopsis invicta Buren) workers. Particulars: for average mortality: 90 min. As for the experimental part: as §1
Series [6] has as its system giant salvinia (Salvinia molesta). Nature of the series: Spray of salviniside II and other isolates/fractions on giant salvinia plants. Type of series: in vivo. Also noted: key to activity class against giant salvinia: inactive: not able to inhibit the growth of giant salvinia at all; active: able to fully inhibit the growth of giant salvinia at high concentrations; very active: able to fully inhibit the growth of giant salvinia at low concentrations. The procedure: The combined fractions were loaded on a pre-equilibrated open ODS column (60×600 mm). The ODS column was eluted successively with 30%, 55%, 75% and 100% MeOH to yield four fractions F1, F2, F3, and F4, respectively. […] NMR experiments were performed on a JEOL ECS-400 and a Bruker Avance 700 NMR instrument. NMR data were reported as δ (ppm) values and referenced to the solvent used. HRESIMS were acquired on an electrospray instrument (MDS Sciex Pulsar Qstar, Ontario, Canada). Octadecyl-functionalized silica gel, silica gel, Sephadex LH-20, and TLC plates were purchased from Aldrich Chemical Co. HPLC analysis was performed on a Hewlett Packard Series 1100 with a HP 1100 diode array detector using a Hypersil ODS column (150×4.6 mm, 5 μM, Supelco; flow rate, 1 mL/min; MeOH/H2O (v/v) linear gradient, 2:98-98:2 in 35 min). Preparative HPLC was performed with an Acuflow Series III pump connected with an Acutect 500 UV/VIS detector using an Econosil ODS column (250×22 mm, 10 μM, All tech). The total 27 healthy and untreated living plants of giant salvinia (in secondary growth stage, approximately 10 g in fresh weight each) were cultured and tested in plastic containers (14×15 cm, 0.68 L) in the NCPC Lab at RT. The […] treatments were as follows. Controls: 9 plants with three in each container (3 replications) were cultured with 150 mL of tap water; 0.01% salviniside II treatment: 9 plants with three in each container (3 replications) were sprayed with 150 mL 0.01% of salviniside II dissolved in tap water; and 0.1% salviniside II treatment: 9 plants with three in each container (3 replications) were sprayed with 150 mL 0.1% of salviniside II dissolved in tap water. […] By the end of two weeks, new growth biomass of plants in each treatment was measured. The biomass of new growth was a primary factor to measure the inhibition of each treatment on the target plant.

On to `C=C[C@]1(C)CC[C@@H]2C(=C[C@H]3OC(=O)[C@]4(C)[C@H]3[C@]23CC[C@@]4(O)OC3)C1` [momilactone B], for which the “effective concentration to inhibit rice seedlings relative to that for other species” value in series [1] is 333 times.
For `C=C[C@]1(C)CC[C@@H]2C(=C[C@H]3OC(=O)[C@@]4(C)C(=O)CC[C@@]2(C)[C@@H]34)C1` [momilactone A], in series [1], the “effective concentration to inhibit rice seedlings relative to that for other species” value is recorded as 100 times.
With `CC(=O)O` [acetic acid], in series [2], the “7 h LD50” value is listed as 6.42% and the “7 h LD90” value is given as 9.96%.
For the compound `NC(Cn1ccc(=O)c(O)c1)C(=O)O` (stereo not shown) [Minosine], in the series on L. leucocephala, the “inhibition on the producing plants” value is on record as “did not show any inhibition”.
Take `O=CO` [formic acid]: the figures for the “7 h LD90” value in series [2] and in series [4] (contact toxicity) were 5.09% and 9.08%, respectively. Further, the growth inhibition entry in series [3] (0.01% concentration) was “still effectively inhibited the growth of giant salvinia”. In series [3] (0.05% concentration, within 24 h), the plants killed entry is reported as “approximately 50%”. For the same compound, the “impact on the termites” value in series [4] (0.1%) was “no impact”. For the same compound, in series [4] (1%, 7 h), the termites killed result is “more than 40%”. Besides, the termite kill entry in series [4] (5%) and in series [4] (10%) was “killed all termites” throughout. The average mortality entry is “more than 70%” in series [5] (2.5%) and 100% in series [5] (5%). The “2 h LD90” value in series [5] (fumigation, PROBIT) was 0.9%.
Consider “4″,6″-O-[3,5-dicarbonyl-8-hydroxy-2-(4′,5′-dihydroxy-phenyl)-1-benzofuran-2-yl]-D-glucopyranose [salviniside II]”, for which the new growth thereafter result in series [6] (0.1%, eight months of observation) is listed as “no new growth”. Moreover, the “growth of giant salvinia” value in series [6] (0.1%, within two weeks, lab at RT) was “totally inhibited”. Besides, the “activity class against giant salvinia” value in series [6] (isolates and subfractions of F3) is listed as “active”.
